Experimental findings from PMC3663763, “The novel BH3 α-helix mimetic JY-1-106 induces apoptosis in a subset of cancer cells (lung cancer, colon cancer and mesothelioma) by disrupting Bcl-xL and Mcl-1 protein–protein interactions with Bak” (Molecular Cancer, 2013) are described below.

Experiment [1] has as its target T1, Bcl-xL (Homo sapiens, UniProt Q07817).
T1 construct: gene BCL2L1; endogenous Bcl-xL
In words: co-immunoprecipitation: displacement of Bak from endogenous Bcl-xL in REN cells at […]. In kind it is cell-based.

In experiment [2] the target is T2, Mcl-1 (Homo sapiens, UniProt Q07820).
T2 construct: gene MCL1
T2 sequence (Q07820 whole entry): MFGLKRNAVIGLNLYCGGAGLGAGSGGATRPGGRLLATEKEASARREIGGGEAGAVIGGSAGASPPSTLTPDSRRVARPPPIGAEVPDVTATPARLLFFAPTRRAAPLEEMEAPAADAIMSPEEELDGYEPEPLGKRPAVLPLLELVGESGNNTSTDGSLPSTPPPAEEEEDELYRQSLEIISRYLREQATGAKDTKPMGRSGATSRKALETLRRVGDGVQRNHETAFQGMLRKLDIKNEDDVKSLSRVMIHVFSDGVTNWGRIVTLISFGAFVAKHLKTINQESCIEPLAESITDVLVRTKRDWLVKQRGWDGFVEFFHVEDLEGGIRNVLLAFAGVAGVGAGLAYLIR
Briefly: fluorescence polarization competition with FITC-Bak-BH3 peptide, […] Mcl-1 (IC50 […]); supported by co-IP in REN cells. In kind it is binding.

T1 sequence (Q07817 whole entry): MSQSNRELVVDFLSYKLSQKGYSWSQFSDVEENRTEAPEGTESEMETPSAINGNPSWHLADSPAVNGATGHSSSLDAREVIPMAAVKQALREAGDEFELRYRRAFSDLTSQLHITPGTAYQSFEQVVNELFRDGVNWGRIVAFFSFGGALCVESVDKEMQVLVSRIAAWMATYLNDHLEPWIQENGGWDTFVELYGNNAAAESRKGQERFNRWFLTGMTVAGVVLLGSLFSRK
T1 sequence (Q16611 2-211 partner): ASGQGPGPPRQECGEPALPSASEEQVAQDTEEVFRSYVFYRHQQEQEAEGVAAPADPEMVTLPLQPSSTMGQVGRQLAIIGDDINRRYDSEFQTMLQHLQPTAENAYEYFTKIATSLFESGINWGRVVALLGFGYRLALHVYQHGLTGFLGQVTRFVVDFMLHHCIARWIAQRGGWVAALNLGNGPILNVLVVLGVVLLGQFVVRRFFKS

With `CC(C)Oc1cc(C(=O)Nc2ccc(C(=O)Nc3ccc(C(=O)O)cc3OC(C)C)nc2OC(C)C)ccc1N` [JY-1-106], the “co-immunoprecipitation: displacement of Bak from endogenous Bcl-xL in REN cells” value in experiment [1] is “JY-1-106 as well as ABT-737 can effectively displace Bak from its inhibitory binding with Bcl-xL”. The affinity in experiment [2], expressed as Ki, was 1790 ± 150 nM.
